Experimental findings from US10988477B2 (Merck Patent GmbH, priority 2018, dated 2021) are described below.

Assay [1] deals with GCN2 kinase (Homo sapiens, UniProt Q9P2K8). The assay is described as follows: GCN2 enzyme inhibition assay (Transcreener ADP2 fluorescence polarization). The note with it: compounds of Formula II; 280 μM ATP, 4 nM GCN2 kinase. The assay is classed as biochemical. A digest of the protocol:
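Kinase activity is followed as ADP formation, measured by fluorescence polarization, using 4 nM enzyme with 280 μM ATP and 200 μM (RS)7 peptide at pH 7.5 and 25 °C for 1 h. Values come from a non-linear tight-binding fit.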

The target of assay [2] is intracellular GCN2 (phosphorylation of the GCN2 substrate eIF2α) (Homo sapiens, UniProt Q9P2K8). The assay is described as follows: GCN2 cellular inhibition assay (AlphaScreen SureFire P-eIF2α Ser51, borrelidin-treated U2OS cells). The assay is classed as cell-based. The note with it: compounds of Formula II; biomarker assay, phosphorylated eIF2α Ser51 in borrelidin-treated U2OS cells. A digest of the protocol:
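Compound effect on GCN2 is gauged by eIF2α Ser51 phosphorylation in borrelidin-challenged U2OS cells (10 μM, 1 h). Top compound level is 40 μM final.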

Sequence of GCN2 kinase (Q9P2K8 whole entry): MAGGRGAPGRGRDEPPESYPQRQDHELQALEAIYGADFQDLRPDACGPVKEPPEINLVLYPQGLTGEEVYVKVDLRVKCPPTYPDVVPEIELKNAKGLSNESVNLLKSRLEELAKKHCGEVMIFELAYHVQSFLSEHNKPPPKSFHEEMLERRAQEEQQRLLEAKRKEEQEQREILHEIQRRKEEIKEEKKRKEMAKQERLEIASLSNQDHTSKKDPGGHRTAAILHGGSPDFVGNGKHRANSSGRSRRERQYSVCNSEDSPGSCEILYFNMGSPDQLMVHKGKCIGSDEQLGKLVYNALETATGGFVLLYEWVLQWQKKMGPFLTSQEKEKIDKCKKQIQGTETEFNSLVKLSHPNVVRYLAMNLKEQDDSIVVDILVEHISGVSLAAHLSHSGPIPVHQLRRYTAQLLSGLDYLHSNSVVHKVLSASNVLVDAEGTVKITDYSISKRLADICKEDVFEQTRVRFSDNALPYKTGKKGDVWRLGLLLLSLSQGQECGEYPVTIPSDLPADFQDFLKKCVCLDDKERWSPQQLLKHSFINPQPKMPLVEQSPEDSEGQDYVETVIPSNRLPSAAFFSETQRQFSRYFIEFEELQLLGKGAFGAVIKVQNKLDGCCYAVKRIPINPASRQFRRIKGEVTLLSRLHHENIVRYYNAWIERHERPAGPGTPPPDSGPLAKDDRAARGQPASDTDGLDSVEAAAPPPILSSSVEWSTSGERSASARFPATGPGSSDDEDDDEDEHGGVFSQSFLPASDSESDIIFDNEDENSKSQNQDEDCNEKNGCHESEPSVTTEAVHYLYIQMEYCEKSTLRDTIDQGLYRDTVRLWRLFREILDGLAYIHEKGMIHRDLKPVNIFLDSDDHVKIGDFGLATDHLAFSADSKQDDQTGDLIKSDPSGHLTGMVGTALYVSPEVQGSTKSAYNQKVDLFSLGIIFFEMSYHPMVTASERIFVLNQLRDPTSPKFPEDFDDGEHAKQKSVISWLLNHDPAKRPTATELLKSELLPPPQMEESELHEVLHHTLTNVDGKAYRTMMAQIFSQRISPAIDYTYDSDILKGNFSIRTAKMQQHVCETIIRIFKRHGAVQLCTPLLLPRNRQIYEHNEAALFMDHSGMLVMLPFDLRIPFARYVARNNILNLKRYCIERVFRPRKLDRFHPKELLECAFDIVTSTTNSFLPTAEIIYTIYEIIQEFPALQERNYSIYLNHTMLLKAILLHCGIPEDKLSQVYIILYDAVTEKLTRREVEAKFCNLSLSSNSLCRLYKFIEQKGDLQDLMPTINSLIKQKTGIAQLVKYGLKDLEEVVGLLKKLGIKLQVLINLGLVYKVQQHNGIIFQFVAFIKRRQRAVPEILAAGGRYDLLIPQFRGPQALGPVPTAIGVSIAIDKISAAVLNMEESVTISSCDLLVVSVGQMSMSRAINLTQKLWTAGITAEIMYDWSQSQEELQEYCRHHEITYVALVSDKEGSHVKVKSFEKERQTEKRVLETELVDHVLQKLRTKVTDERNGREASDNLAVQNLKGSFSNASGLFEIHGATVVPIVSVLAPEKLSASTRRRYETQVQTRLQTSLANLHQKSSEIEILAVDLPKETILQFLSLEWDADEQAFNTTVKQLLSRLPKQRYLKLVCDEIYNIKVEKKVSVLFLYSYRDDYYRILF
Sequence of intracellular GCN2 (phosphorylation of the GCN2 substrate eIF2α) (Q9P2K8 whole entry): as above

`NS(=O)(=O)C1CCCN(c2cc(-c3cnc4ccc(C(F)F)nn34)ncn2)C1` (stereo not shown) [II-376, 1-(6-(6-(Difluoromethyl)imidazo[1,2-b]pyridazin-3-yl)pyrimidin-4-yl)piperidine-3-sulfonamide]: in assay [1], the Ki is 10 to 1000 nM. The same molecule gave an IC50 in assay [2] of 500 to 5000 nM.
For the molecule `NC(=O)C1CCCN(c2cc(-c3cnc4ccc(C(F)F)nn34)ncn2)C1` (stereo not shown) [II-378, 1-(6-(6-(Difluoromethyl)imidazo[1,2-b]pyridazin-3-yl)pyrimidin-4-yl)piperidine-3-carboxamide], in assay [1], the Ki lay within 10 to 1000 nM. Moreover, the IC50 in assay [2] was in the range of 500 to 5000 nM.
Taken in the same sequence, the figures for `O=S(=O)(NCC1CCCN(c2cc(-c3cnc4ccc(C(F)F)nn34)ncn2)C1)C(F)(F)F` (stereo not shown) [II-379, N-((1-(6-(6-(Difluoromethyl)imidazo[1,2-b]pyridazin-3-yl)pyrimidin-4-yl)piperidin-3-yl)methyl)-1,1,1-trifluoromethanesulfonamide] were 10 to 1000 nM and 500 to 5000 nM.
In assay [1], `FC(F)c1ccc2ncc(-c3cc(N4CCCCC4C(F)(F)F)ncn3)n2n1` (stereo not shown) [II-380, 6-(Difluoromethyl)-3-(6-(2-(trifluoromethyl)piperidin-1-yl)pyrimidin-4-yl)imidazo[1,2-b]pyridazine] gave an inhibition constant (Ki) of over 1000 nM. Further, in assay [2], the half-maximal inhibitory concentration (IC50) is over 5000 nM.
Taken in the same sequence, the figures for `CC1C(CNS(C)(=O)=O)CN(c2cc(-c3cnc4ccc(C(F)F)nn34)ncn2)CC1(F)F` (stereo not shown) [II-381, N-((1-(6-(6-(Difluoromethyl)imidazo[1,2-b]pyridazin-3-yl)pyrimidin-4-yl)-5,5-difluoro-4-methylpiperidin-3-yl)methyl)methanesulfonamide] were under 10 nM and under 500 nM.
For `CC1C(CNS(C)(=O)=O)CN(c2cc(-c3cnc4ccc(C(F)F)nn34)ncn2)CC1(F)F` (stereo not shown) [II-382, N-((1-(6-(6-(Difluoromethyl)imidazo[1,2-b]pyridazin-3-yl)pyrimidin-4-yl)-5,5-difluoro-4-methylpiperidin-3-yl)methyl)methanesulfonamide], in that order: 10 to 1000 nM and 500 to 5000 nM.
Taken in the same sequence, the figures for `CS(=O)(=O)NCC1CN(c2cc(-c3cnc4ccc(C(F)F)nn34)ncn2)CC2(CC2)O1` (stereo not shown) [II-383, N-((7-(6-(6-(Difluoromethyl)imidazo[1,2-b]pyridazin-3-yl)pyrimidin-4-yl)-4-oxa-7-azaspiro[2.5]octan-5-yl)methyl)methanesulfonamide] were 10 to 1000 nM and 500 to 5000 nM.
In assay [1], `CS(=O)(=O)NCC1CN(c2cc(-c3cnc4ccc(C(F)F)nn34)ncn2)CC2(CC2)O1` (stereo not shown) [II-384, N-((7-(6-(6-(Difluoromethyl)imidazo[1,2-b]pyridazin-3-yl)pyrimidin-4-yl)-4-oxa-7-azaspiro[2.5]octan-5-yl)methyl)methanesulfonamide] returned a Ki of under 10 nM. The same molecule displayed an IC50 in assay [2] of under 500 nM.
In assay [1], `CNS(=O)(=O)NCC1CCCN(c2cc(-c3cnc4ccc(C(F)F)nn34)ncn2)C1` (stereo not shown) [II-385, 1-((1-(6-(6-(Difluoromethyl)imidazo[1,2-b]pyridazin-3-yl)pyrimidin-4-yl)piperidin-3-yl)methyl)-3-methylsulfuric diamide] returned an inhibitory constant (Ki) of under 10 nM. In addition, the half-maximal inhibitory concentration (IC50) in assay [2] was under 500 nM.
With `CNS(=O)(=O)NCC1CN(c2cc(-c3cnc4ccc(C(F)F)nn34)ncn2)CCO1` (stereo not shown) [II-386, 1-((4-(6-(6-(Difluoromethyl)imidazo[1,2-b]pyridazin-3-yl)pyrimidin-4-yl)morpholin-2-yl)methyl)-3-methylsulfuric diamide], the Ki in assay [1] is under 10 nM. In assay [2], the IC50 was under 500 nM.
`CC1C(CNS(N)(=O)=O)CCCN1c1cc(-c2cnc3ccc(C(F)F)nn23)ncn1` (stereo not shown) [II-387, 6-(Difluoromethyl)-3-[6-[2-methyl-3-[(sulfamoylamino)methyl]-1-piperidyl]pyrimidin-4-yl]imidazo[1,2-b]pyridazine] came in with an inhibitory constant (Ki) in assay [1] of 10 to 1000 nM. Further, the half-inhibitory concentration (IC50) in assay [2] is 500 to 5000 nM.
On to `COC1CCN(c2cc(-c3cnc4ccc(C(F)F)nn34)ncn2)CC1CNS(C)(=O)=O` (stereo not shown) [II-390, N-((1-(6-(6-(Difluoromethyl)imidazo[1,2-b]pyridazin-3-yl)pyrimidin-4-yl)-4-methoxypiperidin-3-yl)methyl)methanesulfonamide], for which the Ki in assay [1] is under 10 nM. The same molecule showed an IC50 in assay [2] of under 500 nM.
For `CCC1C(CNS(C)(=O)=O)CCCN1c1cc(-c2cnc3ccc(C(F)F)nn23)ncn1` (stereo not shown) [II-391, N-((1-(6-(6-(Difluoromethyl)imidazo[1,2-b]pyridazin-3-yl)pyrimidin-4-yl)-2-ethylpiperidin-3-yl)methyl)methanesulfonamide], in that order: under 10 nM and under 500 nM.
As for `CS(=O)(=O)NCC1CCN(c2cc(-c3cnc4ccc(C(F)F)nn34)ncn2)C1` (stereo not shown) [II-394, N-((1-(6-(6-(Difluoromethyl)imidazo[1,2-b]pyridazin-3-yl)pyrimidin-4-yl)pyrrolidin-3-yl)methyl)methanesulfonamide], the inhibition constant Ki in assay [1] is 10 to 1000 nM. The 50% inhibitory concentration (IC50) in assay [2] lay within 500 to 5000 nM.
Take `CS(=O)(=O)C1CCN(c2cc(-c3cnc4ccc(C(F)F)nn34)ncn2)C1` (stereo not shown) [II-395, 6-(Difluoromethyl)-3-(6-(3-(methylsulfonyl)pyrrolidin-1-yl)pyrimidin-4-yl)imidazo[1,2-b]pyridazine]: the Ki in assay [1] fell in the range of 10 to 1000 nM. Also, in assay [2], the IC50 is over 5000 nM.
For the molecule `CS(=O)(=O)CC1CCN(c2cc(-c3cnc4ccc(C(F)F)nn34)ncn2)C1` (stereo not shown) [II-396, 6-(Difluoromethyl)-3-(6-(3-((methylsulfonyl)methyl)pyrrolidin-1-yl)pyrimidin-4-yl)imidazo[1,2-b]pyridazine], the inhibition constant Ki in assay [1] lay in the range of 10 to 1000 nM. The same molecule had an IC50 in assay [2] of 500 to 5000 nM.
On to `CC1CC(CNS(C)(=O)=O)CN(c2cc(-c3cnc4ccc(C(F)F)nn34)ncn2)C1` (stereo not shown) [II-397, N-((1-(6-(6-(Difluoromethyl)imidazo[1,2-b]pyridazin-3-yl)pyrimidin-4-yl)-5-methylpiperidin-3-yl)methyl)methanesulfonamide], for which, in assay [1], the inhibition constant (Ki) was under 10 nM. The molecule further returned an IC50 in assay [2] of under 500 nM.
Molecule `CC1CC(CNS(C)(=O)=O)CN(c2cc(-c3cnc4ccc(C(F)F)nn34)ncn2)C1` (stereo not shown) [II-398, N-((1-(6-(6-(Difluoromethyl)imidazo[1,2-b]pyridazin-3-yl)pyrimidin-4-yl)-5-methylpiperidin-3-yl)methyl)methanesulfonamide] showed a Ki in assay [1] of 10 to 1000 nM. In assay [2], the IC50 lay in the range of 500 to 5000 nM.
On to `NC(=O)C1CCN(c2cc(-c3cnc4ccc(C(F)F)nn34)ncn2)C1` (stereo not shown) [II-399, 1-(6-(6-(Difluoromethyl)imidazo[1,2-b]pyridazin-3-yl)pyrimidin-4-yl)pyrrolidine-3-carboxamide], for which, in assay [1], the Ki was in the range of 10 to 1000 nM. Besides, in assay [2], the IC50 was over 5000 nM.
For `FC(F)c1ccc2ncc(-c3cc(N4CCOCC45CC5)ncn3)n2n1` [II-400, 4-(6-(6-(Difluoromethyl)imidazo[1,2-b]pyridazin-3-yl)pyrimidin-4-yl)-7-oxa-4-azaspiro[2.5]octane], in that order: 10 to 1000 nM and over 5000 nM.
In assay [1], `CC1(C)COCCN1c1cc(-c2cnc3ccc(C(F)F)nn23)ncn1` [II-402, 4-(6-(6-(Difluoromethyl)imidazo[1,2-b]pyridazin-3-yl)pyrimidin-4-yl)-3,3-dimethylmorpholine] returned a Ki of 10 to 1000 nM. This molecule also showed an IC50 in assay [2] of over 5000 nM.
Taken in the same sequence, the figures for `CC1(C)CN(c2cc(-c3cnc4ccc(C(F)F)nn34)ncn2)C[C@@H](CNS(C)(=O)=O)O1` [II-403, (S)—N-((4-(6-(6-(Difluoromethyl)imidazo[1,2-b]pyridazin-3-yl)pyrimidin-4-yl)-6,6-dimethylmorpholin-2-yl)methyl)methanesulfonamide] were under 10 nM and under 500 nM.
`CS(C)(=O)=NC[C@@H]1CN(c2cc(-c3cnc4ccc(C(F)(F)F)nn34)ncn2)CCO1` [II-406, (S)-Dimethyl(((4-(6-(6-(trifluoromethyl)imidazo[1,2-b]pyridazin-3-yl)pyrimidin-4-yl)morpholin-2-yl)methyl)imino)-λ^6-sulfanone] returned an inhibition constant Ki in assay [1] of over 1000 nM. In assay [2], this molecule gave an IC50 of over 5000 nM.
On to `CS(C)(=O)=NC1CCCN(c2cc(-c3cnc4ccc(C(F)(F)F)nn34)ncn2)C1` (stereo not shown) [II-407, Dimethyl((1-(6-(6-(trifluoromethyl)imidazo[1,2-b]pyridazin-3-yl)pyrimidin-4-yl)piperidin-3-yl)imino)-λ^6-sulfanone], for which the Ki in assay [1] is 10 to 1000 nM. The IC50 in assay [2] was over 5000 nM.
Consider `CS(C)(=O)=NC1CCCN(c2cc(-c3cnc4ccc(C(F)F)nn34)ncn2)C1` (stereo not shown) [II-408, ((1-(6-(6-(Difluoromethyl)imidazo[1,2-b]pyridazin-3-yl)pyrimidin-4-yl)piperidin-3-yl)imino)dimethyl-λ^6-sulfanone], for which, in assay [1], the Ki was 10 to 1000 nM. In assay [2], this molecule registered an IC50 of 500 to 5000 nM.
In turn, `NCC1CCN(c2cc(-c3cnc4ccc(C(F)F)nn34)ncn2)C1` (stereo not shown) [II-409, (1-(6-(6-(Difluoromethyl)imidazo[1,2-b]pyridazin-3-yl)pyrimidin-4-yl)pyrrolidin-3-yl)methanamine] registered an inhibitory constant (Ki) in assay [1] of 10 to 1000 nM. In assay [2], this molecule displayed an IC50 of over 5000 nM.
For `CN1CCN(c2cc(-c3cnc4ccc(C(F)F)nn34)ncn2)C[C@H]1CNS(C)(=O)=O` [II-410], in that order: 10 to 1000 nM and 500 to 5000 nM.
The molecule `CC1CN(c2cc(-c3cnc4ccc(C(F)F)nn34)ncn2)CC(CNS(C)(=O)=O)N1` (stereo not shown) [II-411] returned a Ki in assay [1] of 10 to 1000 nM. The same molecule displayed an IC50 in assay [2] of 500 to 5000 nM.
`CC1(NS(C)(=O)=O)CCCN(c2cc(-c3cnc4ccc(C(F)F)nn34)ncn2)C1` (stereo not shown) [II-412, N-(1-(6-(6-(Difluoromethyl)imidazo[1,2-b]pyridazin-3-yl)pyrimidin-4-yl)-3-methylpiperidin-3-yl)methanesulfonamide]: in assay [1], the Ki lay in the range of 10 to 1000 nM. In assay [2], this molecule displayed a concentration for half-maximal inhibition (IC50) of 500 to 5000 nM.
